The text below walks through data of ChEMBL document CHEMBL1795312, “Insights into the structural requirements of farnesyltransferase inhibitors as potential anti-tumor agents based on 3D-QSAR CoMFA and CoMSIA models” (Eur J Med Chem, 2008).

The experiment is described as follows: Inhibition of farnesyltransferase.

A word on the pIC50: it is the negative decadic logarithm of the IC50, by convention in mol/L. Read a high pIC50 as a low IC50. In turn, `N#Cc1ccc(Cn2cncc2COCc2ccc(C#N)cc2-c2cccc(OC(F)(F)F)c2)cc1` gave a pIC50 of 9.3.
Then `Cc1ccc(-c2cc(C#N)ccc2COCc2cncn2Cc2ccc(C#N)cc2)cc1C`, with 9.22; and `Cn1cncc1C(OCc1ccc(C#N)c(NCc2cccc(F)c2)n1)c1ccc(C#N)c(-c2ccccc2C(F)(F)F)c1` (configuration not stated), with 8; and `N#Cc1ccc(Cn2cncc2COCc2ccc(C#N)cc2-c2ccc(C(F)(F)F)cc2)cc1`, with 8.36.
The value for `CC(=O)N1CCN(c2nc(COC(c3ccc(C#N)c(-c4ccccc4C(F)(F)F)c3)c3cncn3C)ccc2C#N)CC1` (configuration not stated) was 8.58; that for `N#Cc1ccc(COCc2cncn2Cc2ccc(Cl)cc2)c(-c2ccc3c(c2)OCO3)c1` was 8.08.
Then `Cn1cncc1C(OCc1ccc(C#N)c(N2CCC(CO)CC2)n1)c1ccc(C#N)c(-c2ccccc2C(F)(F)F)c1` (configuration not stated), with 8.74; and `Cn1cncc1C(OCc1ccc(C#N)c(NCC2CCCO2)n1)c1ccc(C#N)c(-c2ccccc2C(F)(F)F)c1` (configuration not stated), with 8.17; and `Cn1cncc1C(OCc1ccc(C#N)c(N2CCN(CCO)CC2)n1)c1ccc(C#N)c(-c2ccccc2C(F)(F)F)c1` (configuration not stated), with 8.88.
Compound `CCOc1cccc(-c2cc(C#N)ccc2COCc2cncn2Cc2ccc(C#N)nc2)c1` had a pIC50 of 9.23.
Consider `CC(C)(C)c1ccc(-c2cc(C#N)ccc2COCc2cncn2Cc2ccc(C#N)cc2)cc1`, for which the pIC50 is on record as 9.35.
The value for `N#Cc1ccc(COCc2cncn2Cc2ccc(C#N)nc2)c(-c2ccc3c(c2)OCO3)c1` was 8.52; that for `N#Cc1ccc(Cn2cncc2COCc2ccc(C#N)cc2-c2ccc3ccccc3c2)cc1` was 9.03; that for `CCOc1ccc(-c2cc(C#N)ccc2COCc2cncn2Cc2ccc(C#N)cc2)cc1` was 8.92.
The value for `N#Cc1ccc(OCc2cncn2Cc2ccc(C#N)c(-c3cccc4ccccc34)c2)nc1` was 9.04.
Then `COc1ccc(-c2cc(C#N)ccc2COCc2cncn2Cc2ccc(C#N)cc2)cn1`, with 8.11; and `N#Cc1ccc(COCc2cncn2Cc2ccc(C#N)nc2)c(-c2cccc(Cl)c2)c1`, with 8.52; and `COc1cccc(-c2cc(C#N)ccc2COCc2cncn2Cc2ccc(C#N)cn2)c1`, with 8.35.
For `N#Cc1ccc(OCc2cncn2Cc2ccc(C#N)c(-c3cccc4ccccc34)c2)cc1`, the pIC50 was 9.49.
The value for `COc1cccc(-c2cc(C#N)ccc2COCc2cncn2Cc2ccc(C#N)nc2)c1` was 8.82; that for `N#Cc1ccc(Cn2cncc2COCc2ccc(C#N)cc2-c2cccc(Cl)c2)cc1` was 9.43.
The value for `N#Cc1ccc(Cn2cncc2COCc2ccc(Cl)cc2-c2cccc(Cl)c2)cc1` was 9.2; that for `N#Cc1ccc(Cn2cncc2COCc2ccc(C#N)cc2-c2ccc3c(c2)OCO3)nc1` was 8.32.
Then `N#Cc1ccc(Cn2cncc2COc2ccc(C#N)c(-c3cccc4ccccc34)c2)cc1`, with 9.42.
In turn, `N#Cc1ccc(Cn2cncc2COCc2ccc(C#N)cc2-c2ccc(Cl)c(Cl)c2)cc1` returned a pIC50 of 9.43.
The value for `N#Cc1ccc(Cn2cncc2COCc2cnc(C#N)cc2-c2cccc(Cl)c2)cc1` was 8.36.
Then `Cn1cncc1C(OCc1ccc(C#N)c(NCCc2ccccc2)n1)c1ccc(C#N)c(-c2ccccc2C(F)(F)F)c1` (configuration not stated), with 8.04.
Then `Cn1cncc1C(OCc1ccc(C#N)c(NCC2CCOC2)n1)c1ccc(C#N)c(-c2ccccc2C(F)(F)F)c1` (configuration not stated), with 8.11; and `CC(=O)NC1CCN(c2nc(COC(c3ccc(C#N)c(-c4ccccc4C(F)(F)F)c3)c3cncn3C)ccc2C#N)C1` (configuration not stated), with 8.76; and `N#Cc1ccc(Cn2cncc2COCc2ccc(C#N)cc2-c2cccc(Cl)c2)nc1`, with 8.76.
In turn, `N#Cc1ccc(Cn2cncc2COCc2ccc(C#N)cc2-c2cccc3ccccc23)cc1` displayed a pIC50 of 8.88.
The value for `CCOc1cccc(-c2cc(C#N)ccc2COCc2cncn2Cc2ccc(Cl)cc2)c1` was 8.85.
Then `N#Cc1ccc(Cn2cncc2COCc2ccc(C#N)cc2-c2ccc(OC(F)(F)F)cc2)cc1`, with 9.18; and `N#Cc1ccc(Cn2cncc2COCc2ccc(C#N)cc2-c2cccc3c2OCO3)cc1`, with 9.09; and `CC(=O)c1ccc(-c2cc(C#N)ccc2COCc2cncn2Cc2ccc(C#N)cc2)cc1`, with 8.88.
Then `COc1cccc(-c2cc(C#N)ccc2COCc2cncn2Cc2ccc(Cl)cc2)c1`, with 8.65.
The compound `CC(=O)Nc1cccc(-c2cc(C#N)ccc2COCc2cncn2Cc2ccc(C#N)cc2)c1` registered a pIC50 of 7.88.
